Biological target: T1, TrkA (Homo sapiens, UniProt P04629)
T1 construct: aa 441-796; His; purchased Invitrogen PV3144
Assay: Isolated TRK enzyme assay (HTRF KinEASE-TK kit), PV3144 TrkA enzyme assay
Format: biochemical
Details: PV3144 TrkA enzyme assay, recombinant His-tagged cytoplasmic domain aa 441-796, 4 nM enzyme, 40 uM ATP; arithmetic mean where more than one reading; read-out: Trka enzyme (IC50)
Procedure: Isolated TRK Enzyme assays use the HTRF KinEASE-TK kit (Cisbio Cat#62TK0PEJ) with recombinant His-tagged cytoplasmic domains of each TRK receptor sourced from Invitrogen (see table below). This activity-assay measures the phosphorylation of tyrosine residues within a substrate from the HTRF kit which has been validated by Cisbio for a variety of tyrosine kinases including the TRK receptors.
0.5 mM stock solutions of test compounds are prepared and serially diluted in 100% DMSO. A standard curve using the compound of Example 135 disclosed in WO2005/116035 of 150 uM is also prepared on each test plate. High percentage effect (HPE) is defined by 150 uM (using the compound of Example 135 as disclosed in WO2005/116035) and 0% effect (ZPE) is defined by 100% DMSO. Greiner low volume black plates containing 0.2 ul of serially diluted compound, standard and HPE/ZPE are created using the Bravo nanolitre dispenser.
1X enzyme buffer is prepared from 5X Enzymatic Buffer from the Cisbio KinEASE TK kit using MilliQ water. The buffer is then supplemented with 10 mM MgCl and 2 mM DTT (both from Sigma). In the case of TRKB, the buffer is also supplemented with 125 nM Supplement Enzymatic Buffer (SEB) from the Cisbio kit.
2X FAC of enzyme and 2X FAC ATP diluted in 1X complete enzyme buffer is incubated at room temperature for 20 minutes to preactivate the enzyme. Following this preactivation step, 5 ul/well of enzyme+ATP mix is added using a Multidrop Micro to the assay plate, spotted with 0.2 ul 100% DMSO compound. This is left for 20 mins at room temperature before adding 5 ul of 2 uM TK-substrate-Biotin (from the Cisbio kit) diluted in 1X enzyme buffer (1 uM FAC) using the Multidrop Micro. The reaction is incubated at room temperature for the optimized assay reaction time (see table). The reaction is stopped by adding 10 ul/well HTRF Detection Buffer containing 0.25 uM Streptavidin-XL665 (0.125 uM FAC) and 1:200 TK Antibody-Cryptate using a Multidrop.
After the Detection Reagent addition, plates are covered and incubated at room temperature for 60 minutes. HTRF signal is read using an Envision reader, measured as a ratio of emissions at two different wavelengths, 620 nm and 665 nm. […] Test compound data are expressed as percentage inhibition defined by HPE and ZPE values for each plate. Percentage inhibition in the presence of test compound is plotted against compound concentration on a log scale to determine an IC50 from the resultant sigmoid curve.
Below are TrkA IC50 data generated using the PV3144 TrkA enzyme assay. Where more than one reading was taken, the arithmetic mean is presented.

T1 sequence (P04629 441-796): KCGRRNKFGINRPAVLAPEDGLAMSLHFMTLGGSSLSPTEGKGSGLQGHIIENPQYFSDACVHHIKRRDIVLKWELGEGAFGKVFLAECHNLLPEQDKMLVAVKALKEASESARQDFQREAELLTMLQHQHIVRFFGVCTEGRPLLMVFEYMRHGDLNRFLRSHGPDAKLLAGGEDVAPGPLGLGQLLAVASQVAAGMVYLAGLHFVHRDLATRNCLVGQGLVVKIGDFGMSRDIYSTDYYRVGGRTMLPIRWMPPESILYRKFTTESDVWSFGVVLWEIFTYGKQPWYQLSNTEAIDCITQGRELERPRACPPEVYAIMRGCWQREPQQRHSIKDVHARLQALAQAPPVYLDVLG

IC50 [nM]	Compound
34.3	CC(C)n1cc(C(=O)c2ccnc(NC(=O)Cc3ccc(C#N)cn3)c2)c2cncnc21 [Example 62, 2-(5-Cyanopyridin-2-yl)-N-{4-[(7-isopropyl-7H-pyrrolo[2,3-d]pyrimidin-5-yl)carbonyl}pyridin-2-yl]acetamide]
59.7	CC(C)n1cc(C(=O)c2ccnc(NC(=O)Cn3cc(C(F)(F)F)nn3)c2)c2cncnc21 [Example 116, N-(4-{[7-(propan-2-yl)-7H-pyrrolo[2,3-d]pyrimidin-5-yl]carbonyl}pyridin-2-yl)-2-[4-(trifluoromethyl)-1H-1,2,3-triazol-1-yl]acetamide]
51	CC(C)n1cc(C(=O)c2ccnc(NC(=O)Cc3ccc(C#N)cc3)c2)c2cncnc21 [Example 68, 2-(4-cyanophenyl)-N-(4-{[7-(propan-2-yl)-7H-pyrrolo[2,3-d]pyrimidin-5-yl]carbonyl}pyridin-2-yl)acetamide]
7.29	CC(C)(CO)n1cc(C(=O)c2cc(NC(=O)Cc3ccc(Cl)cc3)ccn2)c2cnc(N)nc21 [Example 48, N-{2-[2-Amino-7-(2-hydroxy-1,1-dimethyl-ethyl)-7H-pyrrolo[2,3-d]pyrimidine-5-carbonyl}-pyridin-4-yl]-2-(4-chloro-phenyl)-acetamide]
9.61	CC(C)(C)n1cc(C(=O)c2cc(NC(=O)Cc3cccc(S(C)(=O)=O)c3)ccn2)c2cncnc21 [Example 38, N-{2-[(7-tert-butyl-7H-pyrrolo[2,3-d]pyrimidin-5-yl)carbonyl]pyridin-4-yl}-2-[3-(methylsulfonyl)phenyl]acetamide]
66.1	CC(C)(CO)n1cc(C(=O)c2cc(NC(=O)Cc3ccc(C#N)cc3)ccn2)c2cncnc21 [Example 57, 2-(4-cyanophenyl)-N-(2-{[7-(1-hydroxy-2-methylpropan-2-yl)-7H-pyrrolo[2,3-d]pyrimidin-5-yl]carbonyl}pyridin-4-yl)acetamide]
31.1	O=C(Cc1ccc(Cl)c(Cl)c1)Nc1cc(C(=O)c2cn(CCO)c3ncncc23)ccn1 [Example 138, 2-(3,4-dichlorophenyl)-N-(4-{[7-(2-hydroxyethyl)-7H-pyrrolo[2,3-d]pyrimidin-5-yl]carbonyl}pyridin-2-yl)acetamide]
8.82	CC(C)n1cc(C(=O)c2ccnc(NC(=O)Cc3ccc(F)cc3F)c2)c2cncnc21 [Example 118, 2-(2,4-difluorophenyl)-N-(4-{[7-(propan-2-yl)-7H-pyrrolo[2,3-d]pyrimidin-5-yl]carbonyl}pyridin-2-yl)acetamide]
1080	CC1(n2cc(C(=O)c3cc(NC(=O)Cc4ccc(F)cn4)ccn3)c3cncnc32)COC1 [Example 172, 2-(5-fluoropyridin-2-yl)-N-(2-{[7-(3-methyloxetan-3-yl)-7H-pyrrolo[2,3-d]pyrimidin-5-yl]carbonyl}pyridin-4-yl)acetamide]
9.29	CC(C)(CO)n1cc(C(=O)c2cc(NC(=O)Cc3ccc(C(F)(F)F)cc3)ccn2)c2cnc(N)nc21 [Example 50, N-(2-{[2-amino-7-(1-hydroxy-2-methylpropan-2-yl)-7H-pyrrolo[2,3-d]pyrimidin-5-yl]carbonyl}pyridin-4-yl)-2-[4-(trifluoromethyl)phenyl]acetamide]
10.2	CC(C)n1cc(C(=O)c2ccnc(NC(=O)Cc3ccc(Cl)cc3)c2)c2cnc(N)nc21 [Example 44, N-[4-(2-Amino-7-isopropyl-7H-pyrrolo[2,3-d]pyrimidine-5-carbonyl)-pyridin-2-yl]-2-(4-chloro-phenyl)-acetamide]
31.8	CC(C)c1cn(CC(=O)Nc2cc(C(=O)c3cn(C(C)C)c4ncncc34)ccn2)nn1 [Example 164, N-(4-{[7-(propan-2-yl)-7H-pyrrolo[2,3-d]pyrimidin-5-yl]carbonyl}pyridin-2-yl)-2-[4-(propan-2-yl)-1H-1,2,3-triazol-1-yl]acetamide]
747	O=C(Cc1ccc(Cl)cc1)Nc1ccnc(C(=O)c2cn(C(CO)CO)c3ncncc23)c1 [Example 92, 2-(4-chlorophenyl)-N-(2-{[7-(1,3-dihydroxypropan-2-yl)-7H-pyrrolo[2,3-d]pyrimidin-5-yl]carbonyl}pyridin-4-yl)acetamide]
58.9	O=C(Cc1ccc(Cl)cc1)Nc1cc(C(=O)c2cn(C(CO)CO)c3ncncc23)ccn1 [Example 113, 2-(4-Chlorophenyl)-N-[4-({7-[2-hydroxy-1-(hydroxymethyl)ethyl]-7H-pyrrolo[2,3-d]pyrimidin-5-yl}carbonyl)pyridin-2-yl]acetamide]
84	N#Cc1ccc(CC(=O)Nc2cc(C(=O)c3cn([C@H]4CC[C@H](O)CC4)c4ncncc34)ccn2)cc1 [Example 2, 2-(4-cyanophenyl)-N-(4-{[7-(trans-4-hydroxycyclohexyl)-7H-pyrrolo[2,3-d]pyrimidin-5-yl]carbonyl}pyridine-2-yl)acetamide]
51.9	CC(C)(C)n1cc(C(=O)c2cc(NC(=O)Cn3cc(C4CC4)nn3)ccn2)c2cncnc21 [Example 36, N-[2-(7-tert-Butyl-7H-pyrrolo[2,3-d]pyrimidine-5-carbonyl)-pyridin-4-yl]-2-(4-cyclopropyl-[1,2,3]triazol-1-yl)-acetamide]
13.2	Cc1cc(C(F)(F)F)nn1CC(=O)Nc1cc(C(=O)c2cn(C(C)(C)CO)c3nc(N)ncc23)ccc1C#N [Example 10, N-(5-{[2-amino-7-(1-hydroxy-2-methylpropan-2-yl)-7H-pyrrolo[2,3-d]pyrimidin-5-yl]carbonyl}-2-cyanophenyl)-2-[5-methyl-3-(trifluoromethyl)-1H-pyrazol-1-yl]acetamide]
247	O=C(Cn1ccc(C(F)(F)F)n1)Nc1ccnc(C(=O)c2cn(C(CO)CO)c3ncncc23)c1 [Example 101, N-(2-{[7-(1,3-dihydroxypropan-2-yl)-7H-pyrrolo[2,3-d]pyrimidin-5-yl]carbonyl}pyridin-4-yl)-2-[3-(trifluoromethyl)-1H-pyrazol-1-yl]acetamide]
53.6	CC(C)n1cc(C(=O)c2cc(NC(=O)Cc3ccc(C#N)cn3)ccn2)c2cncnc21 [Example 109, 2-(5-Cyanopyridin-2-yl)-N-{2-[(7-isopropyl-7H-pyrrolo[2,3-d]pyrimidin-5-yl)carbonyl]pyridin-4-yl}acetamide]
22.8	O=C(Cc1ccc(Cl)cc1)Nc1cc(C(=O)c2cn([C@H]3CC[C@H](O)CC3)c3ncncc23)ccn1 [Example 1, 2-(4-chlorophenyl)-N-(4-{[7-(trans-4-hydroxycyclohexyl)-7H-pyrrolo[2,3-d]pyrimidin-5-yl]carbonyl}pyridin-2-yl)acetamide]
876	O=C(Cc1cccc(OC(F)(F)F)c1)Nc1ccnc(C(=O)c2cn(C(CO)CO)c3ncncc23)c1 [Example 97, N-(2-{[7-(1,3-dihydroxypropan-2-yl)-7H-pyrrolo[2,3-d]pyrimidin-5-yl]carbonyl}pyridin-4-yl)-2-[3-(trifluoromethoxy)phenyl]acetamide]
139	O=C(Cc1cccc(C(F)(F)F)c1)Nc1ccnc(C(=O)c2cn(C(CO)CO)c3ncncc23)c1 [Example 96, N-(2-{[7-(1,3-dihydroxypropan-2-yl)-7H-pyrrolo[2,3-d]pyrimidin-5-yl]carbonyl}pyridin-4-yl)-2-[3-(trifluoromethyl)phenyl]acetamide]
49.2	CC(C)n1cc(C(=O)c2ccnc(NC(=O)Cc3ccc(C#N)c(C(F)(F)F)c3)c2)c2cncnc21 [Example 71, 2-[4-cyano-3-(trifluoromethyl)phenyl]-N-(4-{[7-(propan-2-yl)-7H-pyrrolo[2,3-d]pyrimidin-5-yl]carbonyl}pyridin-2-yl)acetamide]

Source: patent publication US20150218172A1, “Pyrrolo[2,3-D]Pyrimidine Tropomyosin-Related Kinase Inhibitors” (PFIZER LIMITED, priority 2012, published 2015)
